From US9963482B2, “Phosphatidylinositol-3-kinase inhibitor and pharmaceutical composition” (Tohoku University, priority 2011, dated 2018)
pIC50: −log10 of the molar value. Like-named read-outs stand apart in the source and are kept apart here.

Tests used:
[1] = system: AKT pathway in PC3 (prostate cancer) cells; assay: AKT pathway inhibition by Western blotting in PC3 cells; format: cell-based, human; conditions: for expression level of phosphorylated AKT (Ser-473, Thr-308) over time: 5 to 180 minutes
Method: PC3 cells were obtained from Cell Resource Center for Medical Research of Institute of Development, Aging, and Cancer, Tohoku University. The cells were cultured at 37° C. in the presence of 5% CO2 by using RPMI1640 medium containing inactivated fetal bovine serum at the concentration of 10%.
Western blotting was performed as follows. Various kinds of the cells treated with each compound were collected and lysed in a lysis buffer (500 mM Tris-HCl pH 7.5, 100 mM NaCl, 2 mM EDTA, 1 mM sodium orthovanadate, 1% NP-40, and 1% protease inhibitor cocktail, manufactured by SIGMA-ALDRICH). After centrifugation, the supernatants were collected.
The followings were used as primary antibodies.
As a secondary antibody, “Alexa Fluor680IgG” (trade name, manufactured by Invitrogen) was used. By using “Odyssey Infrared Imaging System” (trade name, manufactured by LI-COR), expression of the protein of interest was determined.

HCT116 cells [2] = assay: Western blotting for apoptosis, AKT and histone acetylation in HCT116 cells; format: cell-based, human; conditions: HCT116, 24 hours, 5 μM
Method: With regard to Western blotting, HCT116 cells were treated for 24 hours with SAHA or FK-228 at predetermined concentrations, and then the expression of PARP, cleaved PARP, phosphorylated AKT (S473), AKT, acetylated histone H3, and acetylated histone H4 was analyzed.

PI3K (p110α/p85α) = target: T1, PI3K (p110α/p85α) (Homo sapiens, UniProt P42336); assay: In vitro PI3K inhibitory activity by mobility shift assay (Carna Biosciences); format: biochemical; conditions: for PI3K activity inhibitory rate: compound 20 μM, 50 μM ATP
T1 construct: purchased Carna Biosciences, Inc. (Kobe); contract measurement
T1 sequence (P42336 whole entry): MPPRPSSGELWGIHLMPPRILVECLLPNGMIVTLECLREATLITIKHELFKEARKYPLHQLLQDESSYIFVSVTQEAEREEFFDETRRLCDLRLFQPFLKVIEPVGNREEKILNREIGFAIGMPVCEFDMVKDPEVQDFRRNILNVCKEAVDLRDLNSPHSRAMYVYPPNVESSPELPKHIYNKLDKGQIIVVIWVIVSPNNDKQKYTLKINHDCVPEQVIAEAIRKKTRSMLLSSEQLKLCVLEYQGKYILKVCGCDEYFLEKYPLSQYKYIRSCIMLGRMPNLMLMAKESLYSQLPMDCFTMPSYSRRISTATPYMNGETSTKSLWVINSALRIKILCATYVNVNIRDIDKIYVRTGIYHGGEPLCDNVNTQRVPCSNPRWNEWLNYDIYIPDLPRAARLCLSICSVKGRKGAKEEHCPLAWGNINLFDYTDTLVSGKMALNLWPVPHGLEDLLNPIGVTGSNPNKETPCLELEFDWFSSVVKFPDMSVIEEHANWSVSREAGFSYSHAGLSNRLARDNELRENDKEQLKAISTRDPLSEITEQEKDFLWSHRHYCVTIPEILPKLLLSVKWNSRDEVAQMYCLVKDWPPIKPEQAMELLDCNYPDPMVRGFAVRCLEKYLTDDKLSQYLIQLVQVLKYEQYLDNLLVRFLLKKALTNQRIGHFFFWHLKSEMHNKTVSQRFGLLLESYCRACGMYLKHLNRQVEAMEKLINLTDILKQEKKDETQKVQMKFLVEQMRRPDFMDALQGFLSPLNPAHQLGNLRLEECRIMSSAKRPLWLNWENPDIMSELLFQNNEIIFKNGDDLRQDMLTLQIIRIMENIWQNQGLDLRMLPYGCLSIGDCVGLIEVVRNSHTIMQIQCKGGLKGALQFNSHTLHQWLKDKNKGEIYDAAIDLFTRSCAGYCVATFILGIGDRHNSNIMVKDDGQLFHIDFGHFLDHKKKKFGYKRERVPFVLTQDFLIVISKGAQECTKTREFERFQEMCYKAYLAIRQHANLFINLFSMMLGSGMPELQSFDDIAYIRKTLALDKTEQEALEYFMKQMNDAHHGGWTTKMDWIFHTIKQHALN
T1 sequence (P27986 whole entry partner): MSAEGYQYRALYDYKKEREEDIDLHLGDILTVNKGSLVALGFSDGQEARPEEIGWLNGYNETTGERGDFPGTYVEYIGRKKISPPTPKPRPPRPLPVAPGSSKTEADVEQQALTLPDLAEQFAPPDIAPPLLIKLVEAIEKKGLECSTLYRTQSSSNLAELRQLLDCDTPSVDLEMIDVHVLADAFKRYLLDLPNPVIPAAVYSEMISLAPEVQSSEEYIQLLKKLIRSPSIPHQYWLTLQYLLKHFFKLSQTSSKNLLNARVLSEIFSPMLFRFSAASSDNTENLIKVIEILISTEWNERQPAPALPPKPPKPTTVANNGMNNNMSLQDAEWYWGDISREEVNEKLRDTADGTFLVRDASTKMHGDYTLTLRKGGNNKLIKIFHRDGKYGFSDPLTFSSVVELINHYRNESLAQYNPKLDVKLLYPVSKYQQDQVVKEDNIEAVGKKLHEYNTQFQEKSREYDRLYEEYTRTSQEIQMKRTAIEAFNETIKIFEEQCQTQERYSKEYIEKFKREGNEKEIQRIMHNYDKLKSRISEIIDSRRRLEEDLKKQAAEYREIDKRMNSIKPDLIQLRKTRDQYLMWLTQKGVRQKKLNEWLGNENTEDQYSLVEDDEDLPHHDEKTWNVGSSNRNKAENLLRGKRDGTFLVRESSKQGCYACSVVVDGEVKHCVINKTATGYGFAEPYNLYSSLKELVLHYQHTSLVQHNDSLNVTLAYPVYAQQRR
Method: The PI3K (p110α/p85α) inhibitory activity was evaluated at Carna Biosciences, Inc. (Kobe) by mobility shift assay which included isolation and quantification of a substrate and the phosphorylated substrate based on the mobility in a capillary (https://www.carnabio.com/japanese/product/search.cgi?mode=profiling). […] After allowing the reaction to occur for 5 hours at room temperature, the mobility shift assay was performed. The test was performed in duplicate.
Inhibition rate was calculated as follows.
The value of product/substrate+product when an agent was added thereto was calculated similarly, and the inhibition rate was calculated based on a difference from the control value.

[3] = target: T2, human p110α expressed in budding yeast (Homo sapiens, UniProt P42336); assay: Screening of PI3K inhibitor using budding yeast (recovery from cell proliferation disorder caused by p110α); format: cell-based; conditions: AD1-9 transformant expressing p110α, compound 5 μM, 24 hours, average of three tests
T2 construct: expressed in transfected cells; host or cells: Saccharomyces cerevisiae AD1-9 (LEU2-disrupted), galactose-induced
T2 sequence (P42336 whole entry): as the sequence (P42336 whole entry) above
Method: AD1-9 strain can be obtained from Nader Nourizad (Stanford Genome Technology Center Stanford University, CA, USA).
The transformed AD 1-9 strain was cultured at 30° C. in a minimal complete medium SC-U-L containing no uracil and leucine or SGal-U-L in which 2% glucose was replaced with 2% galactose.
By using the aforementioned system, screening of the compound library, which was obtained from the Screening committee of anticancer drugs supported by grant-in-aid for scientific research on priority area “Cancer” from Ministry of Education, Culture, Sports, Science, and Technology, Japan, was performed. Each compound was added to SGal-U-L liquid medium to constitute a concentration of 0.5 μM or 5 μM and the transformant of AD 1-9 was cultured for 24 hours under shaking. Thereafter, A600 was measured. […] Three independent tests were repeatedly performed to calculate the average value of A600.

HCT116 cells [4] = assay: FACS cell cycle analysis in HCT116 cells; format: cell-based, human; conditions: HCT116, 24 hours; SAHA 2.5 μM, LY294002 50 μM, FK228 or FK-A5 at low concentration
Method: The cells were collected, fixed with ethanol, stained with iodopropidium/PBS solution, and analyzed by using “Cytomics FC500 Flow Cytometry System” (trade name, manufactured by Beckman Coulter). The cell cycle fractions were calculated by using “Multicycle software” (trade name, manufactured by Phenomix Flow Systems).

HDAC6 = target: T3, HDAC6 (Homo sapiens, UniProt Q9UBN7); conditions: Table 2; cited from earlier work
T3 sequence (Q9UBN7 1-1215): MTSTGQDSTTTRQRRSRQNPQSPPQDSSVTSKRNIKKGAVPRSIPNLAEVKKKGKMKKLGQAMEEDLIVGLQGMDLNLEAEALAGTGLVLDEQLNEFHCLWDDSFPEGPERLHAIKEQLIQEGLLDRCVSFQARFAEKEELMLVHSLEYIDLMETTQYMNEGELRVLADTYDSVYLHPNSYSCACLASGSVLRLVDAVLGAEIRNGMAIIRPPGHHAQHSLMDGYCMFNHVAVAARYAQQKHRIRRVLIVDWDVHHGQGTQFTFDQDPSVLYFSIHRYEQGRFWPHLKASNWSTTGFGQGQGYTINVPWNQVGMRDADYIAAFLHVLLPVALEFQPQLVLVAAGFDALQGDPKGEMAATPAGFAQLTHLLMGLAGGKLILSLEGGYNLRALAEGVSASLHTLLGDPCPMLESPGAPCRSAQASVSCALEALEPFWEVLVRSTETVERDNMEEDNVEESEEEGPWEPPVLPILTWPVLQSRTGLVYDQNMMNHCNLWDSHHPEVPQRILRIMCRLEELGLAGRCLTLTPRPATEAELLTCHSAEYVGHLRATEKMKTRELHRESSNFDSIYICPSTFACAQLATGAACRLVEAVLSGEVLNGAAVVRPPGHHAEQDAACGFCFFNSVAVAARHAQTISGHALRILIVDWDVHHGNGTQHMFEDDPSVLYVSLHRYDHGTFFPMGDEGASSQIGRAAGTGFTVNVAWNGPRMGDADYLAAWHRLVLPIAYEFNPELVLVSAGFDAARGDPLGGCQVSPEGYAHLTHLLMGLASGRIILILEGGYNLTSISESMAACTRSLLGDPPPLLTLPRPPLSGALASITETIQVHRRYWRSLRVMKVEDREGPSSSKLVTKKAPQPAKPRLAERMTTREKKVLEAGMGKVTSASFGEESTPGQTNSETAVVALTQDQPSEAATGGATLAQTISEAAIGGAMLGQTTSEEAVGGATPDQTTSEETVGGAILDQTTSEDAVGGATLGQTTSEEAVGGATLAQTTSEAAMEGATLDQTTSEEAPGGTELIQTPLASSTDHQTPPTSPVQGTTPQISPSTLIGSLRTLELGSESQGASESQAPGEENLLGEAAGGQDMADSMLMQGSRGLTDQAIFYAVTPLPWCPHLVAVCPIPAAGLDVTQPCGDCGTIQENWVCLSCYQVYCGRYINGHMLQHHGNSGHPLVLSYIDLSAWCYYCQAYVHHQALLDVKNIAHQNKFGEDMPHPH

HDAC1 = HDAC1 (Homo sapiens, UniProt Q13547); conditions: Table 2; cited from earlier work
Chain of HDAC1 (Q13547 whole entry, species assumed): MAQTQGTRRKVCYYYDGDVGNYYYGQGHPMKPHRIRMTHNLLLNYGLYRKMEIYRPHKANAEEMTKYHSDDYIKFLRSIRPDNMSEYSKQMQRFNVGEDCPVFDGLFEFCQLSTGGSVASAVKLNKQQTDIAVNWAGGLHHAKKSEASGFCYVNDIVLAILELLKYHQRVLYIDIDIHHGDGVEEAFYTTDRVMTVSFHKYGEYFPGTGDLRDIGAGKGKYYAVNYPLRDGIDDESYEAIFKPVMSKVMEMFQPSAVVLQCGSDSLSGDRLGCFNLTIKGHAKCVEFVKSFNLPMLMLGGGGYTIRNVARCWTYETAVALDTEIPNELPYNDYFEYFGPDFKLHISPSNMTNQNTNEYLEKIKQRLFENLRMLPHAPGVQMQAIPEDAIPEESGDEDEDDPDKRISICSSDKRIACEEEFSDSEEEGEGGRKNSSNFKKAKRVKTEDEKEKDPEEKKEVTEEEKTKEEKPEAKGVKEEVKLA

[5] = Table 3, PI3K (p110α/p85α), read-out: PI3K IC50

C/C=C1\NC(=O)[C@H]2CSSCC/C=C/[C@H](CC(=O)N[C@H](C(C)C)C(=O)N2)OC(=O)[C@H](C(C)C)NC1=O [FK228, romidepsin]
expression level of phosphorylated AKT (Ser-473, Thr-308) over time ([1]; 10 μM): lowered the expression level of phosphorylated AKT (Ser-473, Thr-308)
lowering of expression level of phosphorylated AKT (S473) compared to control ([1]; 10 μM, 180 minutes): 66%
lowering of expression level of phosphorylated AKT (T308) compared to control ([1]; 10 μM, 180 minutes): 86%
phosphorylated ERK1/2 ([1]; 180 minutes): slightly inhibited
phosphorylated MEK1/2 ([1]; 180 minutes): not inhibited
expression levels of phosphorylated AKT, GSK-3β, mTOR, p70S6K and 4E-BP1 ([1]; 180 minutes, varying concentration): inhibited in a concentration dependent manner
Cleaved PARP (HCT116 cells [2]): increased most
expression of acetylated histone (HCT116 cells [2]): enhanced the expression of acetylated histone
phosphorylated AKT (HCT116 cells [2]): inhibited the phosphorylated AKT
pIC50 (PI3K (p110α/p85α); high ATP concentration (500 μM), read-out: IC50 for PI3K): 3.90
inhibition at 10 µM (PI3K (p110α/p85α); read-out: inhibition rate in the PI3K inhibition curve): 6.5%
pIC50 (PI3K (p110α/p85α); standard ATP concentration (50 μM), read-out: IC50 for PI3K): 4.24
A600 [3]: 0.385
cell cycle arrest (HCT116 cells [4]): induced cell cycle arrest, predominantly at G2/M phase

C/C=C1\NC(=O)C2CSSCC/C=C/C(CC(=O)N[C@H](C(C)C)C(=O)N2)OC(=O)CNC1=O (some centres unmarked) [FK-A1]
pIC50 (HDAC6): 5.49
pIC50 (HDAC1): 8.11

CC(C)C1NC(=O)CC2/C=C/CCSSCC(NC1=O)C(=O)NCC(=O)NCC(=O)O2 (centres unmarked) [FK-A2]
pIC50 (HDAC6): 5.32
pIC50 (HDAC1): 7.35

CC(C)C1NC(=O)CC2/C=C/CCSSCC(NC1=O)C(=O)N[C@H](C)C(=O)NCC(=O)O2 (some centres unmarked) [FK-A3]
pIC50 (HDAC6): 5.49
PI3K activity inhibitory rate (PI3K (p110α/p85α)): higher inhibition rate than FK228
A600 [3]: 0.380
pIC50 (HDAC1): 8.38

CC(C)[C@H]1NC(=O)CC2/C=C/CCSSCC(NC1=O)C(=O)N[C@@H](C)C(=O)NCC(=O)O2 (some centres unmarked) [FK-A4]
pIC50 (HDAC6): 5.68
pIC50 (HDAC1): 6.47

CC(C)[C@H]1NC(=O)CC2/C=C/CCSSCC(NC1=O)C(=O)N[C@@H](Cc1ccccc1)C(=O)NCC(=O)O2 (some centres unmarked) [FK-A6]
pIC50 (HDAC6): 5.54
PI3K activity inhibitory rate (PI3K (p110α/p85α)): higher inhibition rate than FK228
pIC50 (HDAC1): 7.72

CC(C)C[C@H]1NC(=O)C2CSSCC/C=C/C(CC(=O)N[C@H](C(C)C)C(=O)N2)OC(=O)CNC1=O (some centres unmarked) [FK-A7]
pIC50 (PI3K (p110α/p85α); [5]): 4.49

CC(C)C[C@@H]1NC(=O)C2CSSCC/C=C/C(CC(=O)N[C@H](C(C)C)C(=O)N2)OC(=O)CNC1=O (some centres unmarked) [FK-A8]
pIC50 (PI3K (p110α/p85α); [5]): 4.35

CC(C)[C@H]1NC(=O)CC2/C=C/CCSSCC(NC1=O)C(=O)N[C@H](Cc1ccc(O)cc1)C(=O)NCC(=O)O2 (some centres unmarked) [FK-A9]
pIC50 (PI3K (p110α/p85α); [5]): 4.85

COc1ccc(C[C@H]2NC(=O)C3CSSCC/C=C/C(CC(=O)N[C@H](C(C)C)C(=O)N3)OC(=O)CNC2=O)cc1 (some centres unmarked) [FK-A10]
pIC50 (PI3K (p110α/p85α); [5]): 4.57

CC(C)[C@H]1NC(=O)CC2/C=C/CCSSCC(NC1=O)C(=O)N[C@@H](Cc1cccc3ccccc13)C(=O)NCC(=O)O2 (some centres unmarked) [FK-A12]
pIC50 (PI3K (p110α/p85α); [5]): 5.14

CC(C)[C@H]1NC(=O)CC2/C=C/CCSSCC(NC1=O)C(=O)N[C@H](Cc1ccc3ccccc3c1)C(=O)NCC(=O)O2 (some centres unmarked) [FK-A13]
pIC50 (PI3K (p110α/p85α); [5]): 5.07

CC(C)[C@H]1NC(=O)CC2/C=C/CCSSCC(NC1=O)C(=O)N[C@H](Cc1ccc(F)cc1)C(=O)NCC(=O)O2 (some centres unmarked) [FK-A17]
pIC50 (PI3K (p110α/p85α); [5]): 4.69

O=c1cc(N2CCOCC2)oc2c(-c3ccccc3)cccc12 [LY294002]
expression level of phosphorylated AKT (Ser-473, Thr-308) over time ([1]; 10 μM): lowered the expression level of phosphorylated AKT (Ser-473, Thr-308)
A600 [3]: 0.482
cell cycle arrest (HCT116 cells [4]): induced arrest of G0/G1 phase

O=C(CCCCCCC(=O)Nc1ccccc1)NO [SAHA, suberoyl anilide hydroxamic acid]
cell cycle arrest (HCT116 cells [4]): induced arrest of G2/M phase

CC(C)C1NC(=O)C2CSSCC/C=C/C(CC(=O)N[C@H](C)C(=O)N2)OC(=O)C[C@@H]1O (some centres unmarked) [SP-1, spiruchostatin A]
pIC50 (HDAC6): 5.80
A600 [3]: 0.412
pIC50 (HDAC1): 8.48

CC[C@H](C)C1NC(=O)C2CSSCC/C=C/C(CC(=O)N[C@H](C)C(=O)N2)OC(=O)C[C@@H]1O (some centres unmarked) [SP-2, spiruchastatin B]
pIC50 (HDAC6): 5.85
pIC50 (HDAC1): 8.66

CC[C@@H](C)C1NC(=O)C2CSSCC/C=C/C(CC(=O)N[C@H](C)C(=O)N2)OC(=O)C[C@@H]1O (stereo partly drawn) [SP-3, 5″-epi-spiruchostatin B]
pIC50 (HDAC6): 5.41
A600 [3]: 0.464
pIC50 (HDAC1): 8.62

CC(C)[C@H]1NC(=O)C2CSSCC/C=C/C(CC(=O)N[C@H](C(C)C)C(=O)N2)OC(=O)C[C@@H]1O (some centres unmarked) [SP-5, spiruchostatin D]
PI3K activity inhibitory rate (PI3K (p110α/p85α)): higher inhibition rate than FK228
